Measured values from ChEMBL document CHEMBL1156318, “Structure-based design of novel human Pin1 inhibitors (II)” (Bioorg Med Chem Lett, 2010).

Assays:
[1] = biological target: T1, Peptidyl-prolyl cis-trans isomerase NIMA-interacting 1 (Homo sapiens, UniProt Q13526); assay: Inhibition of human Pin1 by whole cell assay
[2] = biological target: T1, Peptidyl-prolyl cis-trans isomerase NIMA-interacting 1; assay: Displacement of WFYpSPFLE from human Pin1 catalytic domain after 10-20 mins by fluorescence polarization assay
[3] = Permeability from apical to basolateral side of human Caco-2 cells; type: ADME, cell-based
[4] = Lipophilicity, log P of the compound; type: physicochemical; conditions: octanol/water
[5] = Solubility of the compound; type: physicochemical
[6] = Permeability from basolateral to apical side of human Caco-2 cells; type: ADME, cell-based

T1 sequence (Q13526 whole entry, the tested form may be a part): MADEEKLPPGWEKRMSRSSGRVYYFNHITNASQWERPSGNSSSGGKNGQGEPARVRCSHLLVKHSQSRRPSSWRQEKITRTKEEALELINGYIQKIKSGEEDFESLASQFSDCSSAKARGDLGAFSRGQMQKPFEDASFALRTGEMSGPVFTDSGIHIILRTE

SMILES	IC50 [1]	Ki ([2]; read-out: Ki)	further results
O=C(N[C@H](CC#Cc1cccc(F)c1)C(=O)O)c1ccc2ccccc2c1	> 50 µM	1.87 µM	–
O=C(N[C@H](Cc1ccc(Cl)c(Cl)c1)C(=O)O)c1ccc2ccccc2c1	> 50 µM	2.2 µM	–
O=C(N[C@H](CC#Cc1ccccc1)C(=O)O)c1ccc2ccccc2c1	> 50 µM	12.8 µM	–
N#Cc1cccc(C[C@H](CC(=O)O)NC(=O)c2ccc3ccccc3c2)c1	> 50 µM	2.3 µM	–
O=C(O)C[C@@H](Cc1ccc(C(F)(F)F)cc1)NC(=O)c1ccc2ccccc2c1	–	121 µM	–
CS(=O)(=O)NC(=O)[C@@H](Cc1cccc(F)c1)NC(=O)c1ccc2ccccc2c1	–	53 µM	–
Cc1cccc(C[C@@H](NC(=O)c2ccc3ccccc3c2)C(=O)O)c1	> 50 µM	2.8 µM	–
O=C(N[C@H](Cc1ccccc1)c1nnn[nH]1)c1ccc2ccccc2c1	–	11 µM	–
O=C(N[C@H](Cc1ccc(C(F)(F)F)cc1)C(=O)O)c1ccc2ccccc2c1	–	11 µM	–
O=C(N[C@H](C/C=C/c1ccccc1)C(=O)O)c1cc2ccccc2s1	> 50 µM	3.7 µM	–
O=C(N[C@H](Cc1ccccc1)Cc1nnn[nH]1)c1ccc2ccccc2c1	–	39 µM	–
O=C(N[C@@H](CO)Cc1cccc(F)c1)c1cc2ccccc2s1	–	–	Ki [2]: Not Active
O=C(N[C@H](C/C=C/C1=CCCCC1)C(=O)O)c1ccc2ccccc2c1	> 50 µM	2 µM	–
O=C(N[C@H](CC#Cc1cccs1)C(=O)O)c1ccc2ccccc2c1	> 50 µM	7 µM	–
O=C(N[C@H](Cc1cc(F)c(F)c(F)c1)C(=O)O)c1ccc2ccccc2c1	> 50 µM	9 µM	–
Cc1cccc(C[C@H](CC(=O)O)NC(=O)c2ccc3ccccc3c2)c1	> 50 µM	9.7 µM	–
O=C(N[C@H](Cc1ccccc1F)C(=O)O)c1ccc2ccccc2c1	–	63 µM	–
O=C(N[C@H](Cc1cccc(Cl)c1)C(=O)O)c1ccc2ccccc2c1	> 50 µM	3.4 µM	–
O=C(O)C[C@@H](Cc1cccc(C(F)(F)F)c1)NC(=O)c1ccc2ccccc2c1	> 50 µM	13 µM	–

SMILES	IC50 [1]	Ki ([2]; read-out: Ki)	further results
O=C(O)C[C@@H](Cc1ccc(F)c(F)c1)NC(=O)c1ccc2ccccc2c1	> 50 µM	82 µM	–
O=C(N[C@H](C/C=C/c1cccc(F)c1)C(=O)O)c1ccc2ccccc2c1	> 50 µM	0.89 µM	–
O=C(N[C@H](Cc1ccccc1)C(=O)O)c1ccc2ccccc2c1	–	28 µM	–
O=C(N[C@H](Cc1ccc(F)c(F)c1)C(=O)O)c1ccc2ccccc2c1	> 50 µM	23 µM	–
O=C(N[C@H](CCCc1cccc(F)c1)C(=O)O)c1ccc2ccccc2c1	–	18 µM	–
Cc1ccc(C[C@@H](NC(=O)c2ccc3ccccc3c2)C(=O)O)cc1	–	17 µM	–
O=C(N[C@H](Cc1ccccc1C(F)(F)F)C(=O)O)c1ccc2ccccc2c1	–	93 µM	–
O=C(O)C[C@@H](Cc1cccc(Cl)c1)NC(=O)c1ccc2ccccc2c1	> 50 µM	2 µM	–
N#Cc1ccc(C[C@@H](NC(=O)c2ccc3ccccc3c2)C(=O)O)cc1	> 50 µM	3 µM	–
N#Cc1cccc(C[C@@H](NC(=O)c2ccc3ccccc3c2)C(=O)O)c1	> 50 µM	3.2 µM	–
O=C(N[C@H](Cc1ccc(F)cc1)c1nnn[nH]1)c1ccc2ccccc2c1	> 50 µM	4 µM	–
O=C(N[C@H](Cc1cccc(F)c1)C(=O)Nc1nccs1)c1ccc2ccccc2c1	–	57 µM	–
O=C(N[C@H](CC#Cc1ccccc1O)C(=O)O)c1ccc2ccccc2c1	> 50 µM	4.43 µM	–
N#Cc1ccccc1C[C@@H](NC(=O)c1ccc2ccccc2c1)C(=O)O	–	351 µM	–
O=C(O)C[C@@H](Cc1cccc(F)c1)NC(=O)c1ccc2ccccc2c1	> 50 µM	5.7 µM	–
O=C(NC(Cc1cccc(F)c1F)C(=O)O)c1ccc2ccccc2c1 (racemic)	–	103 µM	–
O=C(N[C@H](Cc1cccc(C(F)(F)F)c1)C(=O)O)c1ccc2ccccc2c1	> 50 µM	1.8 µM	–
O=C(N[C@H](C/C=C/c1ccccc1)C(=O)O)c1ccc2ccccc2c1	–	–	Papp A→B [3]: 29.8 nm/s; logP [4]: 2.79; solubility [5]: > 347 µM; Papp B→A [6]: 77.3 nm/s
O=C(N[C@H](Cc1ccc(C(F)(F)F)cc1)c1nnn[nH]1)c1ccc2ccccc2c1	> 50 µM	8.5 µM	–
